We go through seven compounds from US10682323B2, “Therapeutic agent for glaucoma” (TOA EIYO LTD., priority 2016, dated 2020).

Molecules are shown by their SMILES.

A word on the EC50: it is the concentration needed to bring the measured effect to its halfway point.

In the assay the target is T1, human sGC (Homo sapiens, UniProt Q02153).
T1 construct: expressed in transfected cells; host or cells: CHO-K1 cells (Chinese hamster ovary), stably co-expressing mouse CNGA2 as the calcium read-out channel
T1 sequence (Q02153 1-619): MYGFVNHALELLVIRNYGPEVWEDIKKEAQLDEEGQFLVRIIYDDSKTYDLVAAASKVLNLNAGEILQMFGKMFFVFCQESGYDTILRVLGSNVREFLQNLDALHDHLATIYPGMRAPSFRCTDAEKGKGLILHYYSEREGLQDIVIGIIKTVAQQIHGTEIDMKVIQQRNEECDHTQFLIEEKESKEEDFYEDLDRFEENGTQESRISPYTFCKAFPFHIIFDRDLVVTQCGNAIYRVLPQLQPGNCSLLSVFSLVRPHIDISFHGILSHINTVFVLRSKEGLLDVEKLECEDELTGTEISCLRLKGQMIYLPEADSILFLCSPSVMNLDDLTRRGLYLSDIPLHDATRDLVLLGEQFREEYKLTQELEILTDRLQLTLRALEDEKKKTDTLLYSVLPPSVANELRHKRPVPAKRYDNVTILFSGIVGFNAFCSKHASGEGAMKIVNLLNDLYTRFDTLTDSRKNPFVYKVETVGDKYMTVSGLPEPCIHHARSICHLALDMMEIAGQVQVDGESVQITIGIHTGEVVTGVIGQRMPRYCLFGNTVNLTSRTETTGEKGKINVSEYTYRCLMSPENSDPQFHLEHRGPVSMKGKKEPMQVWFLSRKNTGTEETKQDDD
T1 sequence (Q02108 1-690 partner): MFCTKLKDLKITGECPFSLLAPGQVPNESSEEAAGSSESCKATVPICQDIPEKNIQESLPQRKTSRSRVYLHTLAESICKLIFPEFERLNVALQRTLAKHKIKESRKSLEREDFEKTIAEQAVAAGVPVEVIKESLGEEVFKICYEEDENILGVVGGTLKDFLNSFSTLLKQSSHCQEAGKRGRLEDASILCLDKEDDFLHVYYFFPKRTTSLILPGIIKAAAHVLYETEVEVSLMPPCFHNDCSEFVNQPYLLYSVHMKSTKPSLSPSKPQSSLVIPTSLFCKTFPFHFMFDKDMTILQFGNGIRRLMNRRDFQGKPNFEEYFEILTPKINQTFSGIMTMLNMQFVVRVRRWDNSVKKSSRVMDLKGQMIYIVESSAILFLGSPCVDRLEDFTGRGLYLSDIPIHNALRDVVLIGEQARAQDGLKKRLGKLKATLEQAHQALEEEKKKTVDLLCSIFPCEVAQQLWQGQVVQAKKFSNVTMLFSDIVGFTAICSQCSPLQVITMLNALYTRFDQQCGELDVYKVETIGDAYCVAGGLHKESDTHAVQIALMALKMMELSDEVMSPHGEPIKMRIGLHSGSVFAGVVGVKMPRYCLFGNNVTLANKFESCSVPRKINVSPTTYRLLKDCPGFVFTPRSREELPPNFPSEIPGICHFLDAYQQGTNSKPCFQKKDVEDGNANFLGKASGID
Kind of assay: Measurement of sGC activating effect in CHO-K1 cells stably expressing human sGC and mouse CNGA2. To be noted: CHO-K1 cells expressing human sGC and mouse CNGA2, Fura2 calcium readout, 10 μmol/L ODQ in assay buffer. Type of assay: cell-based. The method, then: Chinese Hamster ovary cells (CHO-K1 cells) modified for stably expressing human sGC α subunit and β subunit, and a mouse cyclic nucleotide gated channel (CNGA2) were used in the test.
The CHO-K1 cells stably expressing human sGC and mouse CNGA2 were cultured at 37° C. in a F-12 medium supplemented with 10% (v/v) fetal bovine serum (FBS), penicillin (100 U/mL), streptomycin (100 μg/mL), G418 (250 μg/mL), and Zeocin (250 μg/mL). The cells were suspended in a culture medium, seeded in a 96 well plate, and cultured at 37° C. for 24 hours. The cells were washed with an assay buffer 1 (140 mmol/L of sodium chloride, 5 mmol/L of potassium chloride, 0.5 mmol/L of magnesium chloride, 0.01 mmol/L of calcium chloride, 10 mmol/L of glucose, 0.4 mmol/L of magnesium sulfate, 10 mmol/L of 4-(2-hydroxyethyl)piperazine-1-yl ethanesulfonic acid, 125 μmol/L of sulfinpyrazone, pH 7.4), and then an indicator solution in which Fura2-AM as a fluorescent Ca2+ indicator is dissolved in assay buffer 1 at a concentration of 5 μmol/L was added thereto, and cultured at 37° C. for 60 minutes. The culture medium was removed, the cells were washed with assay buffer 1, the test compound solution was added thereto, and cultured at room temperature for 10 minutes. The plate was mounted on a fluorescence microplate reader (FlexStation II, available from Molecular Devices) with setting of excitation wavelengths of 340 and 380 nm and a detection wavelength of 510 nm, an intracellular calcium concentration was measured as a fluorescent intensity ratio obtained from each excitation wavelength.
In this test, the solution of the test compound was prepared by dissolving each test compound in DMSO at a concentration of 10 mmol/L, and then diluting the solution with assay buffer 2 (140 mmol/L of sodium chloride, 5 mmol/L of potassium chloride, 0.5 mmol/L of magnesium chloride, 1 mmol/L of calcium chloride, 10 mmol/L of glucose, 0.4 mmol/L of magnesium sulfate, 10 mmol/L of 4-(2-hydroxyethyl)piperazine-1-yl ethanesulfonic acid, 125 μmol/L of sulfinpyrazone, 100 μmol/L of isobutylmethylxanthine, 10 μmol/L of 1H-[1,2,4]-oxadiazole [4,3-a]quinoxaline-1-on (hereinafter, referred to as ODQ), pH 7.4), in order to adjust the concentration of 10 μmol/L for testing. As a control solution, a DMSO diluted solution was used, instead of the test compound solution.
The activity of the test compound was calculated as an increase rate (%) of the sGC activity in the test compound solution relative to the sGC activity in the control solution, by dividing a fluorescent intensity ratio in adding the test compound by a fluorescent intensity ratio of the control solution, and subtracting the sGC activity in the control solution (100%) therefrom. An EC50 value was calculated from the activity of the test compound at concentrations of 0.0001, 0.001, 0.003, 0.01, 0.03, 0.1, 1, and 10 μmol/L, using a 4 parameter losgistic model from Assay Explorer (available from Dssault Systèmes BIOVIA).
Consider `O=C(O)CCCCN(CCc1ccccc1OCc1ccc(CCc2ccccc2)cc1)Cc1ccc(C(=O)O)cc1` [Comparative Compound 1, reference compound], for which the concentration for a half-maximal effect (EC50) was found to be 8.84 nM.
Next, `O=C(O)CCCCN(CCc1ccccc1OCc1ccc(CCc2ccccc2)cc1)C1COc2cc(C(=O)O)ccc21` (stereo not shown) [Comparative Compound 2, reference compound]: 19.4 nM; `N#Cc1cccc([C@H](CN(CCCCC(=O)O)Cc2ccc(C(=O)O)cc2)OCc2ccc(Oc3ccccc3)cc2)c1` [Comparative Compound 3, reference compound]: 7.01 nM; `CC(C)(C)c1cc(CO[C@@H](CN(CCCCC(=O)O)Cc2ccc(C(=O)O)cc2)c2ccccc2)cc(C(C)(C)C)c1` [Comparative Compound 4, reference compound]: 0.46 nM.
Consider `O=C(O)CCCCN(Cc1ccc(C(=O)O)cc1)C[C@H](OCc1ccc(CCc2ccc(Cl)cc2)cc1)c1ccccc1` [Compound No. 6, (−)-4-([N-(4-carboxybutyl)-N-[(2R)-2-[4-[2-(4-chlorophenyl)ethyl]benzyloxy]-2-phenylethyl]amino]methyl)benzoic acid], for which the EC50 came to 3.14 nM.
Next, `O=C(O)CCCCN(CCc1ccccc1OCc1cccc2c1CCCC2)[C@H]1CCCc2cc(C(=O)O)ccc21` [Compound No. 8, (+)-(5S)-5-[N-(4-carboxybutyl)-N-[2-[2-(5,6,7,8-tetrahydronaphthalene-1-ylmethoxy)phenyl]ethyl]amino]-5,6,7,8-tetrahydronaphthalene-2-carboxylic acid]: 6.62 nM; `O=C(O)CCCCN(Cc1ccc(C(=O)O)cc1)C[C@H](OCc1ccc(CCc2ccccc2)cc1)c1ccccc1` [Compound No. 14, (−)-4-([N-(4-carboxybutyl)-N-[(2R)-2-[4-(2-phenylethyl)benzyloxy]-2-phenylethyl]amino]methyl)benzoic acid]: 5.71 nM.
